The values below are quoted from earlier work in patent US20050148628A1 (priority 2002, published 2005).

For the series the following is noted: in vivo.

Take `OC(c1cc(C(F)(F)F)nc2c(C(F)(F)F)cccc12)C1CCCCN1` (stereo not shown) [mefloquine]: the terminal elimination half-life is reported as 2-3 weeks.
